Measured values reported in paper PMC8689140 (Frontiers in Pharmacology, 2021).

How the values were obtained:
[1] = design: method as in Yang et al., 2021; details: SD rats, oral administration at an equimolar dose, previous study ref Yang et al., 2021; cited from earlier work
VMAT2 [2] = tested on: VMAT2; design: method as in Yang et al., 2021; details: previous study ref Yang et al., 2021; read-out: affinity for VMAT2 IC50; cited from earlier work
rhCYP CYP2D6 = tested on: T1, rhCYP CYP2D6; assay: P450 phenotyping, rhCYP isozymes, CYP2D6; type: in vitro ADME, human; details: rhCYP2D6 probe substrate, 1 µM
T1 construct: purchased Corning Co., Ltd (Shanghai, China)
Description: (§1) According to the result of metabolite identification, three metabolites were selected as the targets for metabolic phenotyping. Seven CYP isozymes (CYP1A2, CYP2B6, CYP2C8, CYP2C9, CYP2C19, CYP2D6, and CYP3A4) were investigated using two kinds of methods: chemical inhibitors in human liver microsomes (HLMs) method (Experiment 1) and rhCYP isozymes method (Experiment 2).
Experiment 2: Each rhCYP isozyme was thawed and diluted as above method. As positive controls, the probe substrates of each P450 isozyme were tested under the same conditions. […] Vx ([…]) is the production rate of metabolites for each rhCYP isozyme.

CYP2D6 = tested on: T2, CYP2D6; assay: P450 phenotyping, chemical inhibitors in HLMs, CYP2D6; type: in vitro ADME, human; details: CYP2D6 probe substrate, 5 µM, specific inhibitor
T2 construct: tissue Corning Co., Ltd (Shanghai, China); host or cells: human liver microsomes
Protocol: as §1
Experiment 1: HLMs were thawed on ice and diluted in100 mM sodium phosphate buffer (pH 7.4) containing 3 mM magnesium chloride. […] After 10 min of preincubation at 37°C, the reactions were initiated by adding 20 µL of NADPH (10 mM) and then incubated at 37 °C in a shaking water bath for 30 min. The samples were prepared in triplicates. The reactions were terminated by adding 600 µL of ice-cold acetonitrile and stored at −20°C until analysis. Control samples without NADPH and 0-time point samples were included. As positive controls, the probe substrates of each P450 isozyme under the same conditions were tested, and specific inhibitors was added. Next, the samples were centrifuged at 13,000 rpm for 10 min, the supernatants were determined by LC–MS/MS.

[3] = design: method as in Skor et al., 2017; Stahl, 2018; details: Figure 1A ref Skor et al., 2017, Stahl, 2018, cited from earlier work
VMAT2 [4] = tested on: VMAT2; design: method as in Skor et al., 2017; Stahl, 2018; details: Figure 1A ref Skor et al., 2017; Stahl, 2018; cited from earlier work
[5] = Metabolite identification in human liver microsomes; type: in vitro ADME
Protocol: (§2) Human, rat and dog liver microsomes were carefully thawed on ice prior to the experiment and diluted to 1 mg/ml in100 mM sodium phosphate buffer (pH 7.4) containing 10 mM magnesium chloride. […] After 3 min of preincubation at 37°C, the reactions were initiated by adding 20 µL of NADPH (20 mM) and then incubated at 37°C in a shaking water bath for 60 min. All samples were prepared in duplicates. The reactions were terminated by adding 600 µl of ice-cold acetonitrile and stored at −20°C until analysis. Control samples without NADPH and 0-time point samples were included. As a positive control, testosterone (10 µM) which was metabolized to produce the hydroxylation metabolite was used as a substrate to confirm the activity of the incubation system. Next, the samples were centrifuged at 13,000 rpm for 10 min, the supernatant was separated and evaporated to dryness under a nitrogen stream. The residue was resuspended in 100 μl of acetonitrile, after centrifugation, the supernatants were analyzed by UPLC–UV-HRMS.
(§3) The analysis was performed on Acquity UPLC system coupled with a diode array detector (Waters Corporation, United States) and Q Exactive™ Orbitrap HRMS (Thermo Electron Corporation, United States). […]
(§4) HRMS were operated at positive ion mode using a heating electrospray ionization source (HESI). […] The metabolites were detected by full MS/dd-MS^2 analysis from m/z 100 to m/z 1,000. […]

[6] = Metabolite identification in dog liver microsomes; type: in vitro ADME
Protocol: as §2, §3, §4

[7] = Metabolite identification in rat liver microsomes; type: in vitro ADME; details: NADPH, 60 min
Protocol: as §2, §3, §4

[8] = Metabolite identification in liver microsomes from humans, dogs and rats (stated across species); type: in vitro ADME, human, dog, rat; details: range or bound across the three species
Protocol: as §2, §3, §4

[9] = Metabolite identification in dog plasma after oral dose; type: in vivo; details: pooled dog plasma after single oral dose of (+)-13e at 3 μmol/kg
Protocol: Male beagle dogs were randomly divided into four groups. […] The dogs were fasted for 12 h before treatment and 4 h after treatment, but they were granted free access to water. Blood was collected from the vein before administration and 0.083 (only for injection groups), 0.25, 0.5, 1, 2, 3, 4, 6, 8, 12 and 24 h, and placed it in heparinized tubes, and centrifuged it at 8,000 rpm for 10 min at 4°C to separate the plasma, which we stored at −20 °C until analysis. The plasma samples were pretreated by protein precipitation with acetonitrile and quantitated by the validated LC-MS/MS (Shimadzu Exion-Triple Quad 4500) method.
Then, four volumes of acetonitrile (containing 0.1% formic acid) were added into the pooled plasma samples to precipitate the proteins. After vortex-mixing and centrifugation, the supernatants were dried under a nitrogen stream. Then, the residues were resuspended in 100 μl of acetonitrile/water (1:1, v/v) with 0.1% formic acid. After centrifugation, the supernatants were analyzed by UPLC–UV-HRMS for metabolite identification.
The analysis was performed on Acquity UPLC system coupled with a diode array detector (Waters Corporation, United States) and Q Exactive™ Orbitrap HRMS (Thermo Electron Corporation, United States). […] The mobile phase was composed water containing 0.1% formic acid (A) and acetonitrile containing 0.1% formic acid (B). The flow rate was 0.40 ml/min. The elution conditions were the following linear gradient for metabolite identify in HLMs: 0–1 min: 95% A, 1–2 min: 80% A, 2–5 min: 80% A, 5–8 min: 70% A, 8–12 min: 30% A, 12–15 min: 5% A, 15–16 min: 95% A, and 16–18 min: 95% A. The elution conditions were the following for metabolite identify in dog plasma: 0–1 min: 95% A, 1–30 min: 70% A, 30–32 min: 30% A, 32–33 min: 5% A, 33–35 min: 95% A, and 35–40 min: 95% A.
HRMS were operated at positive ion mode using a heating electrospray ionization source (HESI). The optimized operating parameters were set as follows: sheath gas (nitrogen) flow rate of 35 psi, aux gas (nitrogen) flow rate of 10 psi, HESI and capillary temperature of 350°C, and spray voltage of 3.5 kV. The metabolites were detected by full MS/dd-MS^2 analysis from m/z 100 to m/z 1,000. The resolution of the first-class scan and second-class scan was 70 000 and 17 500, respectively. The collision energy for collision induced dissociation (NCE) was set to 20, 40 and 60 eV. The loop count was set to five and the dynamic exclusion duration to 10 s. […] Thermo Compound Discover software was used to identify expected and unknown metabolites, and we finally proposed (+)-13e metabolic pathways based on the deduced metabolites and relevant drug biotransformation knowledge.

[10] = no peak in UV, abundance by mass spectrometry

## COc1cc2c(cc1OCC(F)(F)F)CCN1CC(CC(C)C)C(O)CC21 (racemic) [13e, 3-isobutyl-10-methoxy-9-(2,2,2-trifluoroethoxy)-1,3,4,6,7,11b-hexahydro-2H-pyrido [2,1-a]isoquinolin-2-ol]
[1]
  concentration in the brain higher than that of HTBZ: 2 fold
VMAT2 [2]
  IC50: 5.13 nM

## COc1ccc2c(c1)[C@]13CCCC[C@@H]1[C@H](C2)N(C)CC3 [Dextromethorphan]
rhCYP CYP2D6
  CL int in rhCYP: 13.1 µL/min/pmol
CYP2D6
  %Inhibation in HLM: 90.7%

## COc1cc2c(cc1OC)[C@H]1C[C@@H](O)[C@H](CC(C)C)CN1CC2 [HTBZ, (+)-α-dihydrotetrabenazine]
[3]; share of HTBZ isomers after deutetrabenazine
  Plasma Leval (DTBZ): 1.7%
[3]; share of HTBZ isomers after tetrabenazine
  Plasma Leval (TBZ): 1.8%
VMAT2 [4]
  VMAT2 affinity: High

## CC(C)CC1CN2CCc3cc(OCC(F)(F)F)c(O)cc3C2CC1O (centres unmarked) [M373]
[5]; [10]
  Relative abundance Human (*detected by mass spectrometry): 0.69^* %
[6]; [10]
  Relative abundance Dog (*detected by mass spectrometry): 0.46^* %
[7]
  Relative abundance, UV area % Rat: 2.6%
[8]
  relative abundance in liver microsomes from humans, dogs, and rats: less than 3.2%

## COc1cc2c(cc1OCC(F)(F)F)CCN1CC(CC(C)(C)O)C(O)CC21 (centres unmarked) [M403-2]
[5]; NADPH, 60 min, UV area
  Relative abundance, UV area % Human: 12.11%
[6]; NADPH, 60 min, UV area
  Relative abundance, UV area % Dog: 10.01%
[9]
  Relative abundance UV area % in dog plasma: 9.69%
[7]
  Relative abundance, UV area % Rat: 8.78%

## CC(C)C[C@@H]1CN2CCc3cc(OCC(F)(F)F)c(OC4OC(C(=O)O)C(O)C(O)C4O)cc3[C@H]2C[C@H]1O (some centres unmarked) [M549]
[9]
  Relative abundance UV area % in dog plasma: 7.47%

## COc1cc2c(cc1OCC(F)(F)F)CCN1CC(CC(C)C)C(OC3OC(C(=O)O)C(O)C(O)C3O)CC21 (centres unmarked) [M563]
[9]
  Relative abundance UV area % in dog plasma: 9.92%
